Results published in ChEMBL document CHEMBL1201862, “PubChem BioAssay data set” (2004).
Calls of active or inactive are those of the source. Where a SMILES comes first, the peptide text is derived from it. Square brackets hold non-standard residues; d marks the D form. Peptide text beside a SMILES is read from it.

What was measured:
[1] = biological target: T1, Short transient receptor potential channel 4 (Mus musculus, UniProt Q9QUQ5); assay: mouse TRPC4 channel inhibitors, dose response, cell-based, HEK293 TRPC4/mu-opioid, Fluo-4 calcium (AID 434942); format: functional;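 further: potency of inhibitors blocking the TRPC4 calcium response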
T1 sequence (Q9QUQ5 whole entry): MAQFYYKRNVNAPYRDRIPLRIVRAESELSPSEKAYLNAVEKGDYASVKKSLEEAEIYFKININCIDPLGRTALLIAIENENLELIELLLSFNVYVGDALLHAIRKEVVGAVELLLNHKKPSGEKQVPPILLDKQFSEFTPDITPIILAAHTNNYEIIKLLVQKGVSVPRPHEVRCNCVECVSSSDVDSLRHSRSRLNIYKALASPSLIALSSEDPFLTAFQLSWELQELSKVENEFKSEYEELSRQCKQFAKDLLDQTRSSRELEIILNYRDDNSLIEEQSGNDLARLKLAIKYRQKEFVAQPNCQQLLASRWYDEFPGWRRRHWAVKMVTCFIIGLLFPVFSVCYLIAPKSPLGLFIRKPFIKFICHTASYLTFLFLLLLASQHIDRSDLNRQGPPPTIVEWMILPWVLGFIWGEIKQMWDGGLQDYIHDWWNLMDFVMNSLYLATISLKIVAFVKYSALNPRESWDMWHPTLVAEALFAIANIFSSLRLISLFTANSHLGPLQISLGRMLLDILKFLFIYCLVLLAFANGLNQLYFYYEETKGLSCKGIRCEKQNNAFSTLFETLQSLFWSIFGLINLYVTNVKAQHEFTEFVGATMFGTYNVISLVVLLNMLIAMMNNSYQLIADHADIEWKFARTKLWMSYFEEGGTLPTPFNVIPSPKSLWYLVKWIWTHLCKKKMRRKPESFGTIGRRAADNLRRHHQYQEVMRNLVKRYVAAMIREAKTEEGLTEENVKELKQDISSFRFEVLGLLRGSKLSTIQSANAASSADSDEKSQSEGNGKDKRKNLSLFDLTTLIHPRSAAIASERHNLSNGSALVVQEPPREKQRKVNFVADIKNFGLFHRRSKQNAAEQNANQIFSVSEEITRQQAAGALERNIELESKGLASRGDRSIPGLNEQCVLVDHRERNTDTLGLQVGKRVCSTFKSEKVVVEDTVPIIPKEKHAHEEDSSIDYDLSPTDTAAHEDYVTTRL

Streptococcus = assay: Group A Streptococcus viability loss, dose response, counter-screen for streptokinase expression inhibitor project, luminescence, BacTiterGlo (AID 1915); format: functional, organism-based;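 further: potency for reduction of bacterial viability or growth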
Streptokinase A = biological target: T2, Streptokinase A (Streptococcus pyogenes serotype M1, UniProt P10520); assay: S. pyogenes streptokinase expression inhibitors, potency, dose response, plasminogen activation absorbance, OD405 (AID 1914); format: functional, Streptococcus pyogenes M1 GAS;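 further: secreted streptokinase activity via plasminogen activation per viability signal from cell pellet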
T2 sequence (P10520 whole entry): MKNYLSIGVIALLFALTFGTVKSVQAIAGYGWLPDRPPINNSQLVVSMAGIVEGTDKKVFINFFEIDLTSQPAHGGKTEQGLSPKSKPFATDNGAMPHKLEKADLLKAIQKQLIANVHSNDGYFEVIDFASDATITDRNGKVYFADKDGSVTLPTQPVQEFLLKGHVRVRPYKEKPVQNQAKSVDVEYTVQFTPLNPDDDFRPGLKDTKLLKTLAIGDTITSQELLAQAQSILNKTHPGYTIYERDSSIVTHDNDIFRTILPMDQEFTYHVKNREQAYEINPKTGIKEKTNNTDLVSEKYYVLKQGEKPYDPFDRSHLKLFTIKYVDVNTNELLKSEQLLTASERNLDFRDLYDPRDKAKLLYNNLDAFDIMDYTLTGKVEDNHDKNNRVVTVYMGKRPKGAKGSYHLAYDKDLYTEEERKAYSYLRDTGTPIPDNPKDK

[2] = system: Streptococcus sp. 'group A'; assay: growth inhibition of control SK(-) GAS strain, dose response, counter-screen for streptokinase expression inhibitor project, luminescence, kanamycin, BacTiterGlo, confirmation (AID 1900); format: functional, organism-based
[3] = biological target: Induced myeloid leukemia cell differentiation protein Mcl-1 (Homo sapiens, UniProt Q07820); format: functional
Induced myeloid leukemia cell differentiation protein Mcl-1, sequence (Q07820 whole entry, the tested form may be a part): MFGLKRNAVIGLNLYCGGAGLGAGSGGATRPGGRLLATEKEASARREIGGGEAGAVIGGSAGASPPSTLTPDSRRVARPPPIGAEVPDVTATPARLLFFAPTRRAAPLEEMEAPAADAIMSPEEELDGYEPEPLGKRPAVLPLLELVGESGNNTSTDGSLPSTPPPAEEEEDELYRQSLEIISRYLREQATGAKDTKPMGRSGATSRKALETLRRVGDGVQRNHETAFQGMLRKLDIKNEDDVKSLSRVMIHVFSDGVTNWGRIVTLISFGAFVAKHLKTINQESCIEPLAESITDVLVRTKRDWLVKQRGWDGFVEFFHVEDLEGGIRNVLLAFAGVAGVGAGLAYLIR

[4] = biological target: T3, Carboxy-terminal domain RNA polymerase II polypeptide A small phosphatase 1 (Homo sapiens, UniProt Q9GZU7); assay: inhibitors of CTDSP1, concentration-response testing, biochemical assay, absorbance-based, actives from ultra-high-throughput screening (AID 540297); format: functional
T3 sequence (Q9GZU7 whole entry): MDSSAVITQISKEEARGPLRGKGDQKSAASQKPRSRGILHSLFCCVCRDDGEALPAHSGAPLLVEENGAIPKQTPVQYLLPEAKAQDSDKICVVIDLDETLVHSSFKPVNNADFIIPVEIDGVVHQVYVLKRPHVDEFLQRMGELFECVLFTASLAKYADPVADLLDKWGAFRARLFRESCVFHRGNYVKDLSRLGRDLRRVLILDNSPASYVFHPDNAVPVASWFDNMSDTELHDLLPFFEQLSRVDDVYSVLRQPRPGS

Genome polyprotein = Genome polyprotein (dengue virus type 2, UniProt P29990); assay: Dengue-2 NS5 methyltransferase inhibitors, primary screen, biochemical, confirmation dose response (AID 588689); format: functional
Genome polyprotein, sequence (P29990 2492-3391 limits assumed): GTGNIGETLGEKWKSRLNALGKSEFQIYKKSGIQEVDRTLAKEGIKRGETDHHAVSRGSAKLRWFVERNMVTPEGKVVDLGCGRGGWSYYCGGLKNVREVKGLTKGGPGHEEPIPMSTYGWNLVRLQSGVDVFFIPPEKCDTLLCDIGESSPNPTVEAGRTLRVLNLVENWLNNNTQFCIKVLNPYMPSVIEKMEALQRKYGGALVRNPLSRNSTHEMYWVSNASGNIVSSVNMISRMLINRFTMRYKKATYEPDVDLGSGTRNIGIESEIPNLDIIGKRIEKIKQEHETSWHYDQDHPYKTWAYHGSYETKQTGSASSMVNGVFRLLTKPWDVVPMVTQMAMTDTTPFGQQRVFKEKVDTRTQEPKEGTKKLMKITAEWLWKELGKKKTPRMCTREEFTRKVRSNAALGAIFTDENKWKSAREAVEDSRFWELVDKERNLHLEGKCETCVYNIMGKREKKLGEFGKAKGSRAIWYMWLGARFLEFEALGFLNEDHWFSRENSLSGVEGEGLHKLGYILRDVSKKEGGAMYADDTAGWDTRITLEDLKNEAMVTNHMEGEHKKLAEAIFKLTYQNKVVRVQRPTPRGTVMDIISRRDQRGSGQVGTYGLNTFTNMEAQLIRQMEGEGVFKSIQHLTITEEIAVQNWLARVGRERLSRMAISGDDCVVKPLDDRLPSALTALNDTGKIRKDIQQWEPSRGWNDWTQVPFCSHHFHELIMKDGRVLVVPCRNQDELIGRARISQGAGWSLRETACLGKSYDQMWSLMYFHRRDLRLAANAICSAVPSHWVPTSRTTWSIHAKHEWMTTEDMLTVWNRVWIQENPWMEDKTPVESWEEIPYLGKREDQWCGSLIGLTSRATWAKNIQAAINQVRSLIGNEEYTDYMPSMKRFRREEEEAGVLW

[5] = biological target: T4, Zinc finger protein mex-5 (Caenorhabditis elegans, UniProt Q9XUB2); assay: MEX-5/TCR-2 RNA interaction inhibitors, dose response, biochemical, C. elegans, fluorescence polarization (AID 1960)
T4 sequence (Q9XUB2 whole entry): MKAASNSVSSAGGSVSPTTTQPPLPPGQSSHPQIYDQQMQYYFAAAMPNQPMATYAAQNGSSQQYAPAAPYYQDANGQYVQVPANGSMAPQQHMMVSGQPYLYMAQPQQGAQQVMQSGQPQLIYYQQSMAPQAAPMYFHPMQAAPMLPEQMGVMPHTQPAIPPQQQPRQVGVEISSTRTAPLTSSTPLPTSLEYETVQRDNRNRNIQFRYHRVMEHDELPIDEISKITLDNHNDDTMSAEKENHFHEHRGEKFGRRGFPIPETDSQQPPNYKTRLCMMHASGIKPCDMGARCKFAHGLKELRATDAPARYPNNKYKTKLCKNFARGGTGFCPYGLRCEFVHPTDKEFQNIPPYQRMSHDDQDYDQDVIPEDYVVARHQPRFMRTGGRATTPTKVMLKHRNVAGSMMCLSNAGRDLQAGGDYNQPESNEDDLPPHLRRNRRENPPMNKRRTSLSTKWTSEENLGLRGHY

[6] = biological target: T5, RNA-binding protein pos-1 (Caenorhabditis elegans, UniProt G5EF15); assay: inhibitors of POS-1/mex-3 RNA binding, dose response, biochemical, fluorescence polarization (AID 1964);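 further: purified POS-1 fused to maltose binding protein made in E. coli; potency of compounds blocking POS-1 binding to fluorescent RNA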
T5 sequence (G5EF15 whole entry): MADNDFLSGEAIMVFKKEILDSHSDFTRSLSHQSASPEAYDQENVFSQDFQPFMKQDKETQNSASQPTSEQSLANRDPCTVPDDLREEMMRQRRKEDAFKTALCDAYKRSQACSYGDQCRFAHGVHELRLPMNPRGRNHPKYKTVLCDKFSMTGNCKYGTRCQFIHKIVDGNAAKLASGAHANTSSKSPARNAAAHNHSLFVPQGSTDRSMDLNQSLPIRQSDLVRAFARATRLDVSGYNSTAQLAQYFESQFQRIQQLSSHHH

[7] = biological target: T6, Replicative DNA helicase DnaB (Mycobacterium tuberculosis, UniProt P9WMR3); assay: DnaB intein splicing inhibitors, dose response, biochemical, cell-free fluorescence (AID 449749); format: functional
T6 sequence (P9WMR3 whole entry): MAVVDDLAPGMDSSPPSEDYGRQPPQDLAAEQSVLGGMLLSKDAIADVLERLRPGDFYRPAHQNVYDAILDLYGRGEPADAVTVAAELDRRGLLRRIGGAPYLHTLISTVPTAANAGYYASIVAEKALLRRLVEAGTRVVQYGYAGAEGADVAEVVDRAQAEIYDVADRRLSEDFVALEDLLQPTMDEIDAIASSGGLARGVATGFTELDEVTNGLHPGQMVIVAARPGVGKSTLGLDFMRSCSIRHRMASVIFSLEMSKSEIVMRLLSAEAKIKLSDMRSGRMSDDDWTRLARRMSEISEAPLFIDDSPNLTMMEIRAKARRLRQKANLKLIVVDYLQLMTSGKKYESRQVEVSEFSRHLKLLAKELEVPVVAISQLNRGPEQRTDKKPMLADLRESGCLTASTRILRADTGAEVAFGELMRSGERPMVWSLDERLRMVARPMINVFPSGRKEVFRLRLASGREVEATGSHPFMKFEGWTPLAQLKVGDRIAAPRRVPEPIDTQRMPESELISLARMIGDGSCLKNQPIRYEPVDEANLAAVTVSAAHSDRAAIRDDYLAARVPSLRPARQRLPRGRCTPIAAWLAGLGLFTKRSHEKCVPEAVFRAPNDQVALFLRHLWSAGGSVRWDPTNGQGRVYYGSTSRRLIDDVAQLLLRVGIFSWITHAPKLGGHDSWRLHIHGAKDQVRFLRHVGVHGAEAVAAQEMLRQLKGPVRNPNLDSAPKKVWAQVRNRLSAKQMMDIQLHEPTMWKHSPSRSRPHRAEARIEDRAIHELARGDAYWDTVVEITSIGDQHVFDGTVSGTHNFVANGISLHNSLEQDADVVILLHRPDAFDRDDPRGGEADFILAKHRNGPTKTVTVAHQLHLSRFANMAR

SN12K1 = assay: cells; format: functional; settings: Homo sapiens
P388 = assay: cells; format: functional; settings: Mus musculus
P388/ADR = assay: cells; format: functional; settings: Mus musculus
[8] = intracellular Trypanosoma cruzi inhibitors in host cells – cell-based, plate reader, cherry-pick samples, set 3, dose response (AID 651818); format: functional;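 further: compounds incubated with infected cells for about four days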

CC(=O)N1CCN(c2ccccc2NC(=O)c2cccs2)CC1
EC50 [1]: 1.68 µM (active)
EC50 (Streptococcus): > 150 µM (not active)
EC50 (Streptokinase A): > 150 µM (not active)
EC50 [2]: > 150 µM (not active)

CCOC(=O)C1(CCOC)CCN(C(C)CCc2ccc(OC)cc2)CC1 (stereo not given)
EC50 [1]: 4.22 µM (active)

CCCCNC(=O)c1ccc2nc(-c3ccco3)c(-c3ccco3)nc2c1
IC50 [3]: 6.65 µM (active)
IC50 [4]: 3.77 µM (active)
IC50 (Genome polyprotein): 80.4 µM (active)

CCCc1nc2ccccc2n1Cc1ccccc1OC
EC50 [1]: 6.68 µM (active)

COC(=O)Cn1cc(C=C2C(=O)NC(=O)NC2=O)c2ccccc21
EC50 [5]: > 300 µM (not active)
EC50 [6]: > 300 µM (not active)
IC50 (Genome polyprotein): 25.7 µM (active)

COc1cc(C=C2C(=O)NC(=O)NC2=O)ccc1OS(=O)(=O)c1ccccc1[N+](=O)[O-]
IC50 (Genome polyprotein): 37.7 µM (active)

Cc1ccc(N(C(=O)c2snc(C(N)=O)c2N)C(C(=O)NCC2CCCO2)c2ccc(C)o2)c(C)c1 (stereo not given)
EC50 [1]: 1.68 µM (active)

N=C(Cc1cccc2ccccc12)NOC(=O)c1cccs1
EC50 [1]: 0.596 µM (active)
AC50 [7]: 5.96 µM (active)

Cc1sc(C(C2C(=O)CC(C)(C)CC2=O)C2C(=O)CC(C)(C)CC2=O)cc1[N+](=O)[O-]
IC50 (Genome polyprotein): 29.4 µM (active)

O=[N+]([O-])c1cccc(N(CC(O)CN2CCCC2)S(=O)(=O)c2ccccc2)c1 (stereo not given)
EC50 [1]: 10.6 µM (active)

CCS(=O)(=O)Nc1ccc(Nc2c3ccccc3nc3ccccc23)c(OC)c1
GI50 (SN12K1): 0.51 µM (active)
GI50 (P388): < 0.01 µM (active)
GI50 (P388/ADR): 0.0955 µM (active)

Cc1cc(/N=N/c2ccc(/N=N/c3c(O)c(S(=O)(=O)O)cc4cc(S(=O)(=O)O)ccc34)cc2C)ccc1/N=N/c1ccc2cc(S(=O)(=O)O)cc(S(=O)(=O)O)c2c1
GI50 (SN12K1): > 100 µM (inactive)
GI50 (P388): 42.8 µM (inactive)
GI50 (P388/ADR): 26.5 µM (inactive)

O=C(CCN1CCOCC1)C(=Cc1ccccc1)C(=O)CCN1CCOCC1
GI50 (SN12K1): 2.32 µM (inactive)
GI50 (P388): 0.392 µM (active)
GI50 (P388/ADR): 0.255 µM (active)

ClCCN(CC#CCCCC#CCN(CCCl)CCCl)CCCl
GI50 (SN12K1): 10 µM (inactive)
GI50 (P388): 0.736 µM (active)
GI50 (P388/ADR): 2.44 µM (inactive)

O=C(NC/C=C/CO)c1ccccc1
GI50 (SN12K1): > 100 µM (inactive)
GI50 (P388): > 100 µM (inactive)
GI50 (P388/ADR): > 100 µM (inactive)

COc1ccc(NC(=O)Nc2ccc3c(c2)CC(=O)N([C@@H](C)CO)C[C@@H](C)[C@@H](CN(C)Cc2ccc(C(F)(F)F)cc2)O3)cc1
AC50 [8]: 4.62 µM (active)

Cc1ccc(S(=O)(=O)N(C)C[C@H]2Oc3c(NC(=O)Nc4ccc5c(c4)OCO5)cccc3C(=O)N([C@H](C)CO)C[C@@H]2C)cc1
AC50 [8]: 6.64 µM (active)

Cc1ccc(/C=C/C(=O)c2ccc(O)cc2)cc1
EC50 [1]: 3.35 µM (active)

CC(C)C[C@H](NC(=O)[C@H](CC(C)C)NC(=O)[C@@H](Cc1c[nH]c2ccccc12)NC(=O)[C@H](Cc1ccccc1)NC(=O)[C@@H](Cc1c[nH]c2ccccc12)NC(=O)[C@H](CCC(N)=O)NC(=O)[C@@H](CCC(N)=O)NC(=O)[C@@H]1CCCN1C(=O)[C@@H](CCCCN)NC(=O)[C@H]1CCCN1C(=O)[C@H](N)CCCN=C(N)N)C(N)=O (H-[dR][dP][dK]P[dQ]Q[dW]F[dW]LL-NH2)
GI50 (SN12K1): > 100 µM (inactive)
GI50 (P388): > 79.8 µM (inactive)
GI50 (P388/ADR): > 100 µM (inactive)

CC1NC(=O)CNC(=O)CNC(=O)C(Cc2ccc(O)cc2)NC(=O)C(C(C)C)NC(=O)C(C)NC1=O (stereo not given) (cyclo(GGAAVY); configuration not given here)
GI50 (SN12K1): > 100 µM (inactive)
GI50 (P388): > 100 µM (inactive)
GI50 (P388/ADR): > 100 µM (inactive)

CC[C@H]1CN2CCc3cc(OC)c(OC)cc3[C@@H]2C[C@@H]1C[C@H]1NCCc2c1[nH]c1ccc(O)cc21 [TUBULOSINE]
GI50 (SN12K1): < 0.01 µM (active)
GI50 (P388): < 0.01 µM (active)
GI50 (P388/ADR): 0.493 µM (active)
